{"source": "patent US20040242461A1", "about": "“Modulators of telomere stability” (priority 2003, published 2004)", "key": {"[1]": {"test_system": "C57BI/6 mouse cardiomyocytes", "test": "Apoptosis by flow cytometry after antisense transfection of mouse cardiomyocytes", "assay_type": "cell-based", "conditions": "reduction of endogenous TRF2", "description": "(§1) The sequences used were: antisense TRF2 (asTRF2), 5′-[…]-3′ (SEQ ID NO:21); sense TRF2 (sTRF2), 5′-[…]-3′ (SEQ ID NO:22), antisense GFP (Sano, M. et al., 2002), 5′-[…]-3′ (SEQ ID NO:23). Oligonucleotides were transfected into 1-2 day-old C57BI/6 mouse cardiomyocytes, cultured as above, using Oligofectamine (Invitrogen).\nHypodiploid DNA was detected by two-color flow cytometry using propidium iodide for DNA content and FITC-conjugated MF20 (Oh, H. et al., 2001; Akli, S. et al., 1999) or FITC-conjugated antibody to sarcomeric myosin heavy chains to confirm myocyte identity, sampling>5000 myocytes for each histogram."}, "[2]": {"test_system": "TRF2", "test": "Western blot of TRF2 after antisense oligonucleotide transfection of mouse cardiomyocytes", "assay_type": "cell-based", "conditions": "Oligofectamine transfection", "description": "as §1\n(§2) Proteins were resolved by electrophoresis in 10% SDS-polyacrylamide gels and transferred to membranes by electroblotting. Antibodies were: human and mouse TRF2 (Calbiochem), human and mouse TRF1 (Calbiochem), phospho-Chk2 (Thr68; Cell Signaling), sarcomeric a-actin and myc (Sigmna), FLAG epitope (M2, Kodak), GFP (Clontech), Chk2 (Santa Cruz), poly (ADP-ribose) polymerase (PARP, Oncogene). To detect exogenous TRF2 in virus infected cardiomyocytes, goat and rabbit antibodies to TRF2 were used (C-16, H-300, Santa Cruz); endogenous rat TRF2 was detected using rabbit antibody to TRF2 (Alpha Diagnostic International). After blocking with 5% non-fat milk plus 0.1% Tween-20, blots were incubated with primary antibodies (1:500), horseradish peroxidase-conjugated secondary antibodies (1:3000; Amersham Pharmacia Biotech), and enhanced chemiluminescence reagents (Amersham Pharmacia Biotech)."}, "[3]": {"test_system": "poly (ADP-ribose) polymerase (PARP)", "test": "PARP cleavage by Western blot after antisense transfection of mouse cardiomyocytes", "assay_type": "cell-based", "conditions": "reduction of endogenous TRF2", "description": "as §1, §2"}, "[4]": {"test_system": "telomere length", "test": "Telomere length by Southern blot after antisense transfection of mouse cardiomyocytes", "assay_type": "cell-based", "conditions": "reduction of endogenous TRF2", "description": "as §1\n(§3) DNA was digested with Rsa I, resolved by electrophoresis in 0.5% agarose, transferred to Hybond-N^+ membranes (Amersham Pharmacia Biotech), and hybridized using a ^32P-labeled (TTAGGG)4 telomeric probe (Oh, H. et al., 2001; Counter, C. M., 1992). Mean telomere length was ascertained by Phosphor-Imager scanning (Molecular Dynamics)."}, "[5]": {"molecular_target": "T1, HGK (Homo sapiens, UniProt O95819)", "T1 construct": "expressed in transfected cells", "T1 sequence (O95819 whole entry, the tested form may be a part, canonical isoform)": "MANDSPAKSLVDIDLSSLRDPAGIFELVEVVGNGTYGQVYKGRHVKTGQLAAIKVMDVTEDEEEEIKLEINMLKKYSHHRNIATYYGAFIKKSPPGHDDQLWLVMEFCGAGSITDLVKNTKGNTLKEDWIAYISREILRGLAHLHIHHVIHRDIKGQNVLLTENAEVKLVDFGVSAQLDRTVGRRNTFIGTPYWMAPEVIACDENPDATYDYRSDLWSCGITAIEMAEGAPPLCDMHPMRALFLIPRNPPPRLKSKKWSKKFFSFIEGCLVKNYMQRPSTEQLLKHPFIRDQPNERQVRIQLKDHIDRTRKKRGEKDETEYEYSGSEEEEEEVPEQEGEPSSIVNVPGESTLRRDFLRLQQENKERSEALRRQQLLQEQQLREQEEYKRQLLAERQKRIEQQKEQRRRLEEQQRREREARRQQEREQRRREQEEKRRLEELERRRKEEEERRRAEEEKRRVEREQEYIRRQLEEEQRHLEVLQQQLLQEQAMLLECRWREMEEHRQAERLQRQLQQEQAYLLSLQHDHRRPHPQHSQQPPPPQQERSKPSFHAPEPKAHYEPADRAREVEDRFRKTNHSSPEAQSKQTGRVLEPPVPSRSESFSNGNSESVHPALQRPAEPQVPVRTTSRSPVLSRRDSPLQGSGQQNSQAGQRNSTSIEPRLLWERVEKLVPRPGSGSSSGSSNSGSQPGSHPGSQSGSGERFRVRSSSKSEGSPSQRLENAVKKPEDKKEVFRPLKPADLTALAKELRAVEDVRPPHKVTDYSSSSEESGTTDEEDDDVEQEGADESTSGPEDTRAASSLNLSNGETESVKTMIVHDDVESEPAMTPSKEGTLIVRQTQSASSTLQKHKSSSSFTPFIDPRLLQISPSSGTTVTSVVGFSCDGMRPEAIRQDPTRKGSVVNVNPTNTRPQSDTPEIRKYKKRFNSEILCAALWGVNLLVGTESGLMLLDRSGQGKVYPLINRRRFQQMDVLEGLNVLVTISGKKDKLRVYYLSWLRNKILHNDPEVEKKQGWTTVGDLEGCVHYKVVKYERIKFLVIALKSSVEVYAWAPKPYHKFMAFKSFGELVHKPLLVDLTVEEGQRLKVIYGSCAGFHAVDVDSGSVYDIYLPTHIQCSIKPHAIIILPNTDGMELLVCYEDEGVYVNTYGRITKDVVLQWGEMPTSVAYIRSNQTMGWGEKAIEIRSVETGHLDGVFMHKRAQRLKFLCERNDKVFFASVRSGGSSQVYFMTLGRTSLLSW", "test": "HGK immune complex kinase assay (recombinant FLAG-HGK in cardiomyocytes)", "assay_type": "cell-based", "conditions": "for HGK activity after agonist: 50 μg/ml C2-ceramide, 200 μM H2O2", "description": "HGK was alternatively spliced, with the presence or absence of an SH3-like domain being one potentially important difference. […] Dominant-negative, FLAG-tagged JNK1 (JNK1 APF). Viruses were engineered using pAd-Easy-1 and pShuttleCMV. Adenoviruses encoding wild-type and dominant-negative TRF2 were constructed analogously (Oh et al., 2003), using cDNAs.\nFor HGK immune complex kinase assays, recombinant HGK was precipitated using M2 antibody and protein G-Sepharose, in the lysis buffer above. Precipitates were washed twice in lysis buffer, twice with 500 mM LiCl, 100 mM Tris-HCl, pH 7.6, 0.1% Triton X-100, and twice with kinase buffer (20 mM MOPS, pH 7.6, 2 mM EGTA, 10 mM MgCl2, 1 mM dithiothreitol, 0.1% Triton X-100, 1 mM Na3VO4), then were mixed with 10 μg of myelin basic protein (MBP) (Invitrogen, Carlsbad, Calif.), as substrate, 15 μM ATP, and 10 μCi [γ-^32P]ATP in 30 μl of kinase buffer for 30 min at 30° C. (Yao et al., 1999). Reaction mixtures were resolved by SDS-polyacrylamide gel electrophoresis, then were analysed by autoradiography and Western blotting as above."}, "[6]": {"test_system": "TRF2", "test": "Endogenous TRF2 expression in NIH 3T3 cells after antisense oligonucleotide", "assay_type": "cell-based, mouse", "conditions": "NIH 3T3 cells (not shown)"}, "[7]": {"test_system": "Chk2", "test": "Chk2 immune complex kinase assay after antisense transfection of mouse cardiomyocytes", "assay_type": "cell-based", "conditions": "reduction of endogenous TRF2", "method": "as §1\nTo assay Chk2 activity, samples were lysed in 20 mM Tris-HCl (pH 8.0), 0.1% Triton X-100, 10 mM NaF, 1 mM NaVa3VO4, […], 1 mM PMSF, then incubated for 1 hr with antibody to Chk2 and protein A/G-Sepharose (Pharmacia). lmrunoprecipitates were washed and assayed in the presence of 30 μM CHKtide substrate peptide ([…] (SEQ ID NO:24), Upstate Biotechnology, Inc), 40 μM adenosine triphosphate, 15 μCi [γ-^32P]ATP, for 30 min at 30° C. Proteins were resolved by electrophoresis in SDS-polyacrylamide gels and visualized by autoradiography. Aliquots of Chk2 immunoprecipitates were also used for Western blotting, allowing activity and content to be compared in the same samples."}, "[8]": {"test_system": "telomere length", "test": "Telomere length by Southern blot with telomeric probe in cultured cardiomyocytes", "assay_type": "cell-based, rat", "conditions": "gene transfer or treatment", "description": "as §3"}, "[9]": {"test_system": "TRF2", "test": "Western blot of TRF2 protein levels in cultured cardiomyocytes", "assay_type": "cell-based, rat", "description": "Ventricular myocytes from 2 day-old Sprague-Dawley rats were purified and cultured (Oh, H. et al., 2001; Akli, S. et al., 1999); by this age, ventricular myocytes become refractory to serum-induced Gl exit, after initial serum-starvation in vitro (Akli, S. et al., 1999). Plasmids for human TRF1, TRF2, and the corresponding dominant-negative truncations (TRF1DM, TRF2DBDM) were provided by Dr. Titia de Lange (Rockefeller University) (Karlseder, J. et al., 1999). Adenoviruses coexpressing enhanced green fluorescent protein (eGFP) were generated using pAdTrack-cytomegalovirus (CMV) and pShuttle-CMV (provided by Dr. Bert Vogelstein, Johns Hopkins Oncology Center) (Oh, H. et al., 2001; He, T. C., 1998). Myocytes were infected using a multiplicity of infection of 20. To visualize TRF1/2 after gene transfer, myocytes were fixed in 70% ethanol, then incubated sequentially with tetramethyl rhodamine isothiocyanate-conjugated MF-20 antibody to sarcomeric myosin heavy chains to confirm cell type (University of Iowa Hybridoma Bank), rabbit antibodies to TRF1 and TRF2 (#581420 and 581425; 1:500, Calbiochem) and fluorescein isothiocyanate (FITC)-conjugated goat antibody to rabbit IgG (1:1000, Sigma). Nuclei were stained with 4′,6-diamidino-2-phenylindole (DAPI). Images were captured using a Zeiss Axioplan 2 epifluorescence microscope.\nas §2, with “After blocking with 5% non-fat milk plus 0.1% Tween-20, blots were incubated with primary antibodies (1:500), horseradish peroxidase-conjugated secondary antibodies (1:3000; Amersham Pharmacia Biotech), and enhanced chemiluminescence reagents (Amersham Pharmacia Biotech).” left out"}, "[10]": {"test_system": "poly (ADP-ribose) polymerase (PARP)", "test": "PARP cleavage / total PARP by Western blot in cultured cardiomyocytes", "assay_type": "cell-based, rat", "description": "as §2\nCells were lysed in 20 mM HEPES, pH 7.4, 2 mM EGTA, 50 mM glycerophosphate, 1% Triton X-100, 10% glycerol, 1 mM dithiothreitol, 2 μg/ml leupeptin, 5 μg/ml aprotinin, 1 mM phenylmethylsulfonyl fluoride, 1 mM Na3VO4. Lysates were resolved by SDS-polyacrylamide gel electrophoresis and transferred to optitran (Schleicher & Schuell, Keene, N.H.) membranes for Western blotting. […]"}, "[11]": {"test_system": "cardiomyocytes", "test": "Apoptosis as hypodiploid DNA by two-color flow cytometry in cultured cardiomyocytes", "assay_type": "cell-based, rat", "source_text": "Myocytes were infected using a multiplicity of infection of 20. […] Nuclei were stained with 4′,6-diamidino-2-phenylindole (DAPI). Images were captured using a Zeiss Axioplan 2 epifluorescence microscope.\nVentricular myocytes from 1 to 2 day-old Sprague-Dawley rats were enzymatically dissociated, then subjected to Percoll gradient centrifugation and preplating to enrich for cardiomyocytes. After overnight culture in medium with 10% horse serum, cells were infected at a multiplicity of infection of 10, then cultured in serum-free medium for 24 to 48 hr (Oh et al., 2003). Where indicated, C2-ceramide (N-acetyl-D-sphingosine; ICN, Costa Mesa, Calif.), 5 mg/ml in dimethylsulfoxide (DMSO), was added at a final concentration of 20-50 μg/ml."}, "[12]": {"test_system": "αMHC-TRF2 mice and non-transgenic littermates", "test": "Doxorubicin cardiomyopathy in αMHC-TRF2 mice and non-transgenic littermates", "conditions": "15 mg/kg intraperitoneally", "method": "Cardiac-specific transgenic mice were created by subcloning the TRF2 and dnTRF2 cDNAs behind the 5.5 kb mouse αMHC promoter (Subramaniam et al., 1991). The resultant plasmids were injected into the pronuclei of fertilized FVB/N oocytes, and tail DNA was used to screen for inheritance of the transgenes. Doppler and M-mode echocardiography were performed as described (Oh et al., 2003; and Minamino et al., 2002).\nTo test for cardiac protection, 10-12 week-old αLMHC-TRF2 mice (n=14) and non-transgenic littermates (n=14) were injected intraperitoneally with 15 mg/kg doxorubicin."}, "[13]": {"conditions": "cultured cardiomyocytes, gene transfer or treatment"}}, "note": "“Also recorded” adds a separate entry of the source.", "data": [{"molecule": "5′-CCTGGGCTGCCGGCTCGAGC-3′ (all phosphorothioate, sugars by position and methylation of C not given here) [antisense TRF2]", "values": [{"measurement": "apoptosis", "setting": "[1]", "value": "apoptosis"}, {"measurement": "TRF2 protein level", "setting": "[2]", "value": "specifically reduced"}, {"measurement": "PARP cleavage", "setting": "[3]", "value": "PARP cleavage"}, {"measurement": "telomere shortening", "setting": "[4]", "value": "telomere shortening"}, {"measurement": "induction of HGK activity", "setting": "[5]; antisense suppression of endogenous TRF2, antisense GFP as control", "value": "more than 50%"}, {"measurement": "increase of HGK kinase activity", "setting": "[5]; mouse cardiomyocytes, antisense oligo transfection, HGK adenovirus", "value": 1.5, "unit": "fold"}, {"measurement": "endogenous TRF2 expression", "setting": "[6]", "value": "inhibited endogenous TRF2 expression effectively"}, {"measurement": "Chk2 activation", "setting": "[7]", "value": "Chk2 activation"}]}, {"molecule": "OO", "note": "[H2O2]", "values": [{"measurement": "telomere erosion / shortening", "setting": "[8]", "value": "induced"}, {"measurement": "time to decrease of endogenous TRF2", "setting": "[9]; cardiomyocytes, 100 μM H2O2", "value": "≤ 2", "unit": "h"}, {"measurement": "PARP cleavage", "setting": "[10]; [13]", "value": "induced"}, {"measurement": "HGK activity after agonist", "setting": "[5]", "value": "activated"}, {"measurement": "apoptosis (hypodiploid DNA)", "setting": "[11]; [13]", "value": "induced"}]}, {"molecule": "CCCCCCCCCCCCC/C=C/[C@@H](O)[C@H](CO)NC(C)=O", "note": "[ceramide, N-acetyl-D-sphingosine]", "values": [{"measurement": "TRF2 levels", "setting": "[9]; viral delivery or ceramide treatment", "value": "reduced TRF2 levels"}, {"measurement": "HGK activity after agonist", "setting": "[5]", "value": "activated further; also recorded: potent activator of HGK"}, {"measurement": "increase in hypodiploid myocytes", "setting": "[11]; ceramide treatment", "value": 20, "unit": "fold"}]}, {"molecule": "COc1cccc2c1C(=O)c1c(O)c3c(c(O)c1C2=O)C[C@@](O)(C(=O)CO)C[C@@H]3O[C@H]1C[C@H](N)[C@H](O)[C@H](C)O1", "note": "[doxorubicin]", "values": [{"measurement": "TRF2 protein expression decreased", "setting": "[9]; cardiac myocytes, 1 μM doxorubicin, within 8 hr", "value": 50, "unit": "%"}, {"measurement": "time until loss of PARP (caspase-3 activation) was comparable to the TRF2 loss", "setting": "[10]; cardiac myocytes, 1 μM doxorubicin", "value": 48, "unit": "h"}, {"measurement": "induction of cardiac myocyte apoptosis (hypodiploid myocytes)", "setting": "[11]; doxorubicin administered to myocytes", "value": "induced cardiac myocyte apoptosis"}, {"measurement": "survival as of day 16", "setting": "[12]; littermate controls", "value": 7, "unit": "%"}, {"measurement": "mice that had died by 7 days after injection", "setting": "[12]; non-transgenic mice, n=14", "value": 63, "unit": "%"}, {"measurement": "survival as of day 16", "setting": "[12]; αMHC-TRF2 mice", "value": 36, "unit": "%"}, {"measurement": "deaths by 7 days after injection", "setting": "[12]; αMHC-TRF2 mice, n=14", "value": "no deaths"}]}]}
